# Tests used:
# Assay in all cases: relative viability (nuclei count vs DMSO), 5 days (fraction); higher = more cells survive
# [1] = compound: C[C@@H](C(=O)N[C@@H](C1CCCCC1)C(=O)N2CCC[C@H]2C(=O)N[C@@H]3[C@@H](CC4=CC=CC=C34)OCC#CC#CCO[C@@H]5CC6=CC=CC=C6[C@@H]5NC(=O)[C@@H]7CCCN7C(=O)[C@H](C8CCCCC8)NC(=O)[C@H](C)NC)NC [AZD5582] + CC1(C)CCC(c2ccc(Cl)cc2)=C(CN2CCN(c3ccc(C(=O)NS(=O)(=O)c4ccc(N[C@H](CCN5CCOCC5)CSc5ccccc5)c(S(=O)(=O)C(F)(F)F)c4)cc3)CC2)C1 [Navitoclax] (partner 0.5 µM)
# Method in brief: (§1)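 After 5 days of treatment, lung cancer cells in 1536-well plates were fixed and stained in a single step (final 0.05% Triton X-100, 1% formaldehyde, 1 ug/ml Hoechst) and their nuclei counted on 4× images. Treatment had been applied by pin tool the day after seeding as one drug alone or as a fixed anchor-drug dose with five library-drug doses (not always all listed) in √10 steps. Relative viability is the nuclei count of treated wells divided by that of vehicle wells, and values are medians of duplicate plates.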
# [2] = compound: Cn1nnc2c(C(N)=O)ncn2c1=O [Temozolomide] + C[C@]1(O)C[C@@H](c2nc(-c3ccc4ccc(-c5ccccc5)nc4c3)c3c(N)nccn32)C1 [Linsitinib] (partner 1 µM)
# Method in brief: as §1
# [3] = compound: C[C@@H](C(=O)N[C@@H](C1CCCCC1)C(=O)N2CCC[C@H]2C(=O)N[C@@H]3[C@@H](CC4=CC=CC=C34)OCC#CC#CCO[C@@H]5CC6=CC=CC=C6[C@@H]5NC(=O)[C@@H]7CCCN7C(=O)[C@H](C8CCCCC8)NC(=O)[C@H](C)NC)NC [AZD5582] + CC(=O)c1c(C)c2cnc(Nc3ccc(N4CCNCC4)cn3)nc2n(C2CCCC2)c1=O [Palbociclib] (partner 0.5 µM)
# Method in brief: as §1
# [4] = compound: Cn1nnc2c(C(N)=O)ncn2c1=O [Temozolomide] + C[C@@H](Oc1cc(-c2cnn(C3CCNCC3)c2)cnc1N)c1c(Cl)ccc(F)c1Cl [Crizotinib] (partner 1 µM)
# Method in brief: as §1
Cell Line,relative viability ([1]; first compound 0.001581 µM),relative viability ([1]; first compound 0.005 µM),relative viability ([1]; first compound 0.01581 µM),relative viability ([1]; first compound 0.05 µM),relative viability ([2]; first compound 0.2 µM),relative viability ([2]; first compound 0.6325 µM),relative viability ([2]; first compound 2 µM),relative viability ([2]; first compound 6.325 µM),relative viability ([2]; first compound 20 µM),relative viability ([3]; first compound 0.001581 µM),relative viability ([3]; first compound 0.005 µM),relative viability ([3]; first compound 0.01581 µM),relative viability ([3]; first compound 0.05 µM),relative viability ([4]; first compound 0.2 µM),relative viability ([4]; first compound 0.6325 µM),relative viability ([4]; first compound 2 µM),relative viability ([4]; first compound 6.325 µM),relative viability ([4]; first compound 20 µM)
201T,1.21,1.23,1.12,1.31,0.975,1.07,1.11,1.04,0.991,0.375,0.357,0.316,0.43,1.02,1.09,1.08,0.834,0.986
A549,1.24,1.26,1.2,1.14,0.348,0.684,0.759,0.517,0.467,,,,,0.809,0.829,0.869,0.754,0.816
A-427,0.779,0.831,0.896,0.756,1.1,1.15,1.15,0.948,0.604,0.462,0.473,0.528,0.495,0.927,0.775,0.815,0.594,0.428
ABC-1,,,,,0.899,0.83,0.943,0.716,0.771,0.658,0.834,0.492,0.625,1.11,0.91,1.14,1.17,1.34
BEN,0.0668,0.0512,0.0565,0.0544,0.752,0.941,0.997,0.781,0.707,0.416,0.466,0.497,0.435,0.649,0.858,0.814,0.815,0.717
CAL-12T,,0.531,1.26,0.854,0.627,0.799,0.841,0.778,0.698,0.2,0.225,0.309,0.159,0.93,0.744,0.587,0.695,0.733
COR-L23,0.963,1.07,1,1.22,1.01,1.08,0.863,0.994,0.819,0.238,0.329,0.269,0.305,0.925,0.701,0.669,0.503,0.614
COR-L 105,0.8,0.657,0.746,0.813,0.919,1.01,1.03,0.797,0.7,0.383,0.394,0.415,0.452,0.739,0.913,0.827,0.787,0.841
Calu-6,0.718,0.635,0.871,0.467,0.929,0.941,1.17,0.971,1.02,,,,,0.997,0.83,0.904,0.817,0.767
ChaGo-K-1,0.977,1.18,0.797,0.994,,,,,,0.882,0.943,0.921,1.01,1.3,1.16,1.15,0.646,1.12
EBC-1,0.394,0.408,0.4,0.373,1.03,0.885,1.13,0.912,0.947,,,,,0.167,0.2,0.229,0.208,0.194
EKVX,0.878,1.01,0.798,0.959,0.442,1.05,1.04,1.06,0.707,0.378,0.425,0.298,0.393,0.357,1.07,0.951,0.886,0.551
EMC-BAC-2,1.07,0.984,1.15,0.62,0.719,0.85,0.766,0.799,0.749,0.472,0.527,0.503,0.513,0.842,0.74,0.789,0.768,0.804
EPLC-272H,0.608,0.743,1.05,0.208,1.13,1.13,1.38,1.11,0.812,0.165,,0.32,0.127,0.851,0.986,0.925,0.962,0.728
H3255,0.479,0.59,0.375,0.213,,0.963,0.927,0.959,0.145,0.29,0.306,0.302,0.318,,0.822,0.795,0.798,0.179
HARA,1.11,1.07,1.14,1.12,0.593,0.985,1.09,0.933,0.863,0.257,0.275,0.233,0.318,1.04,1.05,1.15,1.01,0.949
HCC-15,0.629,0.675,0.675,0.619,0.976,0.905,0.928,0.858,0.888,0.501,0.582,0.615,0.309,0.872,0.918,0.807,0.805,0.905
HCC-44,0.919,0.692,1.01,0.581,0.668,0.741,0.681,0.718,0.562,0.906,0.931,1.02,0.928,0.786,0.796,0.791,0.831,0.826
HCC-78,0.69,0.948,0.775,0.617,0.387,0.618,0.668,0.67,0.529,0.435,0.474,0.474,0.432,0.293,0.331,0.382,0.361,0.248
HCC-366,1.05,0.925,0.998,1.07,0.607,0.708,0.72,0.709,0.762,0.347,0.319,0.322,0.43,0.519,0.604,0.402,0.622,0.447
HCC-827,1.09,1.01,0.972,1.04,0.998,0.959,0.954,0.968,0.158,0.481,0.47,0.492,0.529,0.992,0.932,0.932,0.902,0.172

Cell Line,relative viability ([1]; first compound 0.001581 µM),relative viability ([1]; first compound 0.005 µM),relative viability ([1]; first compound 0.01581 µM),relative viability ([1]; first compound 0.05 µM),relative viability ([2]; first compound 0.2 µM),relative viability ([2]; first compound 0.6325 µM),relative viability ([2]; first compound 2 µM),relative viability ([2]; first compound 6.325 µM),relative viability ([2]; first compound 20 µM),relative viability ([3]; first compound 0.001581 µM),relative viability ([3]; first compound 0.005 µM),relative viability ([3]; first compound 0.01581 µM),relative viability ([3]; first compound 0.05 µM),relative viability ([4]; first compound 0.2 µM),relative viability ([4]; first compound 0.6325 µM),relative viability ([4]; first compound 2 µM),relative viability ([4]; first compound 6.325 µM),relative viability ([4]; first compound 20 µM)
HOP-62,0.945,0.917,1.08,1.14,1.05,1.01,0.895,0.832,0.866,0.297,0.46,0.453,0.379,1.12,0.991,1.05,0.801,0.965
IA-LM,0.499,0.538,0.951,0.714,0.941,0.518,0.664,0.548,0.909,,,,,1.27,0.719,1.09,0.706,0.962
LC-2-ad,0.331,0.454,0.468,0.384,0.795,0.823,0.808,0.751,0.807,0.465,0.535,0.46,0.543,0.455,0.443,0.51,0.443,0.437
LCLC-97TM1,,0.329,0.347,0.32,0.191,0.19,0.173,0.176,0.203,0.172,0.282,0.24,0.165,0.344,0.237,0.342,0.33,0.375
LCLC-103H,,,,,1.03,1.05,1.23,1.09,1.01,0.47,0.469,0.432,0.377,1.03,1.04,1.08,1.05,1.05
LK-2,0.754,0.895,0.803,1.21,0.359,0.543,0.418,0.382,0.253,0.553,0.738,,0.75,0.26,0.229,0.252,0.206,0.213
NCI-H358,,,,,0.576,0.728,0.854,0.797,0.617,0.124,0.156,0.14,0.136,0.785,0.62,0.686,0.552,0.559
NCI-H522,,,,,,,,,,0.963,1.02,1.11,0.912,,,,,
NCI-H596,0.811,0.581,1.16,0.332,1.16,1.08,1.02,1.09,1.02,,,,,1.07,0.978,1.06,1.04,0.884
NCI-H650,,,,,1.08,0.893,1.05,0.735,0.83,0.328,0.287,0.255,0.245,0.679,0.697,0.607,0.725,0.669
NCI-H661,,,,,,0.54,0.641,0.442,0.525,0.403,0.44,0.464,0.429,0.828,0.93,0.942,0.944,1.02
NCI-H1299,1,1.07,1.08,1.04,0.994,0.961,1.16,1,1.02,,,,,1.02,0.934,0.988,0.989,0.975
NCI-H1395,1.02,1.16,,1.49,0.821,1.05,1.31,0.978,1.04,0.578,0.688,,0.76,,,,,
NCI-H1563,,,,,1.14,1.26,1.39,1.23,1.22,,,,,0.911,0.853,0.965,0.847,0.729
NCI-H1648,,,,,,,,,,0.264,0.311,,0.274,,,,,
NCI-H1650,1.07,1.04,1.23,1.17,,,,,,0.37,0.43,0.334,0.328,1.08,1.12,1.05,0.9,0.799
NCI-H1793,0.475,0.453,0.476,0.465,,0.884,1.15,0.846,0.839,0.311,0.355,0.297,0.397,,,,,
NCI-H2170,0.551,0.624,0.624,0.758,,,,,,0.37,0.388,0.364,0.492,,1.26,1.21,0.999,0.494
NCI-H2342,,,,,,,,,,0.492,0.518,0.491,0.54,,,,,
SW 900,,,,,,,,,,0.443,0.566,0.531,0.435,,,,,
